For 10 compounds, IC50 and Ki results are on record in BindingDB's records for doi:10.1007/s00044-007-9043-6 (Central Drug Research Institute, 2008).

The target in the experiment is T1, Tyrosine-protein phosphatase non-receptor type 1 (Homo sapiens, UniProt P18031).
T1 sequence (P18031 whole entry): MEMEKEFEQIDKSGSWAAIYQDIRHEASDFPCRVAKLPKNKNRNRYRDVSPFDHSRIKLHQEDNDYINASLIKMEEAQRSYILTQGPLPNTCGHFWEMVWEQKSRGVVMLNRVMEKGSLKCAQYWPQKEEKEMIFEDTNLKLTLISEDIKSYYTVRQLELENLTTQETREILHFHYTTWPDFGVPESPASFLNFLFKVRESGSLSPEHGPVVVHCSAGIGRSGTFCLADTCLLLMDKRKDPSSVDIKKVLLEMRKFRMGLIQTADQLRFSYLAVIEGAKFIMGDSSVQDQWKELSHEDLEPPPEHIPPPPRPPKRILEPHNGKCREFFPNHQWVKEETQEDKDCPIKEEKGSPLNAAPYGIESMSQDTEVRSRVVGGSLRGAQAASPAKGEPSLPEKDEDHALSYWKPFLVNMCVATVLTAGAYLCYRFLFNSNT
Briefly: In Vitro Assay. As to conditions: pH 7. The procedure:
The effect of the test compounds on PTP1B was studied by preincubating the test compound with enzyme in the reaction system for 10 min and determining the residual enzyme activity according to the Goldstein method.

In turn, `COc1c(C2=NOC(c3ccccc3)C2)ccc2c1C=CC(C)(C)O2` (stereo not given) [PTP1B Inhibitor, 5] had a 50% inhibitory concentration (IC50) of 70 µM and a Ki of 30 µM.
The corresponding values for `COc1ccc(C2CC(c3ccc4c(c3OC)C=CC(C)(C)O4)=NO2)cc1` (stereo not given) [PTP1B Inhibitor, 6] are 91 µM and 56 µM.
The corresponding values for `COc1c(C2=NOC(c3ccccn3)C2)ccc2c1C=CC(C)(C)O2` (stereo not given) [PTP1B Inhibitor, 7] are 87 µM and 34 µM.
The corresponding values for `COc1cc(C=O)ccc1C1=NOC(c2ccccc2)C1` (stereo not given) [PTP1B Inhibitor, 10] are 69 µM and 48 µM.
Compound `COc1ccc(C2CC(c3ccc(C=O)cc3OC)=NO2)cc1` (stereo not given) [PTP1B Inhibitor, 11] yielded an IC50 of 67 µM and a Ki of 48 µM.
The corresponding values for `COc1cc(C=O)ccc1C1=NOC(c2ccccn2)C1` (stereo not given) [PTP1B Inhibitor, 12] are 485 µM and 170 µM.
For `COc1cc(C=O)ccc1C1=NOC(c2ccncc2)C1` (stereo not given) [PTP1B Inhibitor, 13] the same measures were 275 µM and 150 µM.
`COc1cc(C=O)ccc1C1=NOC(n2ccnc2)C1` (stereo not given) [PTP1B Inhibitor, 14] registered an IC50 of 88 µM and a Ki of 63 µM.
For `COC(=O)C1C(c2ccc(C=O)cc2OC)=NOC1c1ccccc1` (stereo not given) [PTP1B Inhibitor, 15] the same measures were 165 µM and 135 µM.
For the compound `CC(=O)Oc1ccc(C2=NOC(c3ccccc3)C2)c(OC(C)=O)c1` (stereo not given) [PTP1B Inhibitor, 19], the IC50 is 62.7 µM and the inhibition constant (Ki) was 25 µM.
